In patent US7163923B2, “Peptide deformylase activated prodrugs” (Celmed Oncology (USA), Inc., priority 2001, dated 2007):
≈ marks a conversion by molar mass, not a printed value.

Experiments:
P. aeruginosa = experiment: MIC susceptibility testing (NCCLS, 96-well); assay type: cell-based; settings: P. aeruginosa ATCC 27853, 18 hours at 35° C.
Procedure: (§1) The NCCLS (National Committee for Clinical Laboratory Standards) method was used to determine MIC's of antimicrobial compounds. All stocks of tested compounds were prepared in either water or DMSO based on the solubility. At the highest concentration of the tested compound DMSO content should not exceed 0.5%. Briefly 2-fold serial dilutions of test compounds from the highest concentration were made in a 96-well microtiter plate. Each well was inoculated with testing bacteria in broth to a final concentration of approximately 5×10^5 CFU/ml. Bacterial growth was monitored by the increase of optical density at 600 nm using a microplate reader (Tecan SpectraFluor Plus). The MIC was defined as the lowest concentration at which bacteria growth (equivalent to visible growth) was inhibited after 18 hours of incubation at 35° C.

E. faecalis = experiment: MIC susceptibility testing (NCCLS, 96-well); assay type: cell-based; settings: E. faecalis ATCC 29212, 18 hours at 35° C.
Procedure: as §1

E. coli = experiment: MIC susceptibility testing (NCCLS, 96-well); assay type: cell-based; settings: E. coli ATCC 25922, 18 hours at 35° C.
Procedure: as §1

S. aureus [1] = experiment: MIC susceptibility testing (NCCLS, 96-well); assay type: cell-based
Procedure: as §1

[2] = Stability in PBS, HEPES buffer and Mueller Hinton broth; assay type: physicochemical
Procedure: (§2) Stability of PDF ECTA compounds was determined in different media: PBS, pH 7.4 (Gibco Life Technologies), 50 mM HEPES buffer (Sigma), pH 7.5, Mueller Hinton broth (Becton Dickinson), mouse and human plasma (Sigma). Dependence of a compound concentration on time was fit to an exponential equation c=co×exp(−k×t)} where c is the running concentration of the compound, co is its initial concentration and t is time. The compound half-life was determined as t1/2=0.693/k.

[3] = Stability in mouse plasma; assay type: in vitro ADME
Procedure: as §2

[4] = Stability in human plasma; assay type: in vitro ADME
Procedure: as §2

purified PDF = target: T1, purified PDF (Escherichia coli, UniProt P0A6K3); experiment: Cell-free reaction catalyzed by purified PDF (HPLC, Michaelis-Menten); assay type: biochemical, E. coli; settings: different concentrations of actinonin, FIG. 5
T1 construct: made in house; host or cells: PDF-overexpressing E. coli
T1 sequence (P0A6K3 1-169): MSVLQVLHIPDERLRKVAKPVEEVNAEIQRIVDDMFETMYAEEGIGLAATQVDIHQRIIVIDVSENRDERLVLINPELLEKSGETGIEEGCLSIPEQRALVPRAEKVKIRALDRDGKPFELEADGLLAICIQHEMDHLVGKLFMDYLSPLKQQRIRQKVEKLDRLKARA
Procedure: (§3) In a seperate experiment, cell-free reaction of PDF ECTA compounds has been studied using PDF purified from PDF-overexpressing E. coli following a procedure described in Ragusa S., et al. (2000) and Wei, et al. (2000b). NB3068 conversion was used as an example of a PDF ECTA reaction catalyzed by purified PDF. It was carried out in 50 mM HEPES buffer, pH 7.5 at room temperature. NB3068 concentrations were in the range of 2–250 μM, and the concentration of the enzyme in the reaction mixture was 25 nM. The conversion was monitored by direct injection of the reaction mixture onto an HPLC column (Adsorbosphere HS, C18, 5 μm, 4.6 mm×150 mm, Alltech). […] Kinetic parameters of the reaction were determined fitting the data to the Michaelis-Menten equation.
(§4) To confirm the role of PDF in catalyzing NB3068 transformation the rate of the reaction at different enzyme concentrations was determined (FIGS. 3 and 4). As can been seen the rate of the reaction is proportional to the enzyme concentration.

S. aureus [5] = experiment: MIC susceptibility testing (modified NCCLS, 384-well); assay type: cell-based; settings: Staphylococcus aureus
Procedure: The NCCLS (National Committee for Clinical Laboratory Standards), method to determine MIC's of antimicrobial compounds is modified for high-throughput screening. All stocks of tested compounds are prepared in either water or in DMSO depending on solubility. At the highest concentration, DMSO content should not exceed 0.5%. Briefly, twenty 2-fold serial dilutions of test compounds from the highest concentration are made in a 384-well microtiter plate. Each well is inoculated with testing bacteria in broth to a final concentration of approximately 1–1.5×10^6 cells/ml. Bacterial growth is determined by the increase of optical density at 600 nm using a microplate reader (Tecan SpectraFluor Plus). The MIC is defined as the lowest concentration at which bacterial growth (equivalent to visible growth) was inhibited after 16 to 18 hours of incubation at the appropriate temperature required for the bacteria growth.
Using the assay provided above, the potency of NB2046 was compared to triclosan.

[6] = substrate: CCn1cc(C(=O)O)c(=O)c2cc(F)c(N3CCN(C(=O)OCc4ccc(OC(=O)[C@H](CC(C)C)NC(=O)[C@H](CCSC)NC=O)cc4)CC3)cc21; experiment: Cell-free reaction catalyzed by purified PDF (HPLC, Michaelis-Menten); assay type: biochemical, E. coli; settings: other: PDF 25 nM, 50 mM HEPES pH 7.5, room temperature, substrate 2–250 μM
Procedure: as §3, §4

[7] = S. aureus (MS) ATCC 29213, 18 hours at 35° C.
[8] = 50 mM HEPES buffer, pH 7.5, 6 hours
[9] = 50 mM HEPES buffer, pH 7.5, read-out: t1/2 HEPES
[10] = Mueller Hinton broth, read-out: t1/2 Broth
[11] = PBS, pH 7.4, read-out: t1/2 PBS

Molecule CSCC[C@H](NC=O)C(=O)N[C@@H](CC(C)C)C(=O)Oc1ccc(COC(=O)N(CCCl)CCCl)cc1 [NB3103, 2-(2-Formylamino-4-methylsulfanyl-butyrylamino)-4-methyl-pentanoic acid 4-{[bis-(2-chloro-ethyl)-carbamoyloxy]-methyl}-phenyl ester] has an MIC (P. aeruginosa) greater than 128 µg/mL, an MIC (E. faecalis) greater than 128 µg/mL and an MIC (E. coli) greater than 128 µg/mL. The MIC (S. aureus [1]; [7]) was greater than 128 µg/mL, the “percent of the compound remaining after 6 hours, HEPES” value [2, 8] was “(95%)” and the half-life [2, 9] was greater than 12 h. The “percent of the compound remaining after 6 hours, Broth” value ([2]; Mueller Hinton broth, 6 hours) was “(95%)”, the “percent of the compound remaining after 6 hours, PBS” value ([2]; PBS, pH 7.4, 6 hours) was “(96%)” and the half-life ([2]; buffer, Mueller Hinton broth, read-out: t1/2 Broth) was greater than 12 h. For the same molecule, the half-life ([2]; buffer, PBS, pH 7.4, read-out: t1/2 PBS) was greater than 12 h.

Work on “1-Cyclopropyl-6-fluoro-4-oxo-7-piperazin-1-yl-1,4-dihydro-quinoline-3-carboxylic acid 4-[2-(2-formylamino-4-methylsulfanyl-butyrylamino)-4-methyl-pentanoyloxy]-benzylester [NB3057]” yielded an MIC (P. aeruginosa) of 2 µg/mL, an MIC (E. faecalis) of 4 µg/mL and an MIC (E. coli) of 0.0625 µg/mL. The MIC (S. aureus [1]; S. aureus (MR) ATCC 33591, 18 hours at 35° C.) was 0.5 µg/mL, the MIC (S. aureus [1]; [7]) was 0.125 µg/mL and the “t1/2 Mouse Plasma” value [3] was 1.4 min. The “t1/2 Human Plasma” value [4] was less than 30 s, the “t1/2 Broth” value ([2]; buffer) was 10 h and the “percent of the compound remaining after 6 hours, PBS” value ([2]; buffer, 6 h, pH 7.4) was “(82%)”. The “t1/2 PBS” value ([2]; buffer, pH 7.4) was greater than 12 h and the “t1/2 HEPES” value ([2]; buffer, pH 7.5) was greater than 12 h.

For CCCCC[C@H](CC(=O)NO)C(=O)N[C@H](C(=O)N1CCC[C@H]1CO)C(C)C [actinonin], the “Effect on NB3068 reaction catalyzed by purified PDF” value (purified PDF) was “slows down the reaction in dose dependent manner”.

Work on CCn1cc(C(=O)O)c(=O)c2cc(F)c(N3CCN(C(=O)OCc4ccc(OC(=O)[C@H](CC(C)C)NC(=O)[C@H](CCSC)NC=O)cc4)CC3)cc21 [NB3068, 1-Ethyl-6-fluoro-7-(4-{4-[2-(2-formylamino-4-methylsulfanyl-butyrylamino)-4-methyl-pentanoyloxy]-benzyloxycarbonyl}-piperazin-1yl)-4-oxo-1,4-dihydro-qiuinoline-3-carboxylic acid] yielded an MIC (P. aeruginosa) of 0.5 µg/mL (≈ 0.674 µM), an MIC (E. faecalis) of 2 µg/mL (≈ 2.7 µM) and an MIC (E. coli) of less than 0.004 µg/mL. The MIC (S. aureus [1]; [7]) was 2 µg/mL (≈ 2.7 µM), the half-life ([3]; read-out: t1/2 Mouse Plasma) was 36 s and the half-life ([4]; read-out: t1/2 Human Plasma) was 4.1 min. The “percent of the compound remaining after 6 hours, HEPES” value [2, 8] was “(70%)”, the half-life [2, 9] was greater than 12 h and the “percent of the compound remaining after 6 hours, Broth” value ([2]; Mueller Hinton broth, 6 hours) was “(70%)”. The half-life [2, 10] was greater than 12 h, the “percent of the compound remaining after 6 hours, PBS” value ([2]; PBS, pH 7.4, 6 hours) was “(75%)” and the half-life [2, 11] was greater than 12 h.

Molecule Oc1cc(Cl)ccc1Oc1ccc(Cl)cc1Cl [Triclosan, reference compound] has an MIC (S. aureus [5]; ATCC 11632 / MSSA) of 0.00195 µg/mL (≈ 0.00675 µM), an MIC (S. aureus [5]; ATCC 13301 / MSSA) of 0.000488 µg/mL (≈ 0.00169 µM) and an MIC (S. aureus [5]; ATCC 14154 / MSSA) of 0.00195 µg/mL (≈ 0.00675 µM). The MIC (S. aureus [5]; ATCC 33591 / MSSA) was 0.00781 µg/mL (≈ 0.027 µM), the MIC (S. aureus [5]; ATCC 33592 / MSSA) was 0.00391 µg/mL (≈ 0.0135 µM) and the MIC (S. aureus [5]; ATCC 33593 / MSSA) was 0.000977 µg/mL (≈ 0.00337 µM). It also gave an MIC (S. aureus [5]; ATCC 43300 / MSSA) of 0.00195 µg/mL (≈ 0.00675 µM), an MIC (S. aureus [5]; ATCC 700260 / MSSA) of 0.000244 µg/mL (≈ 0.000843 µM) and an MIC (S. aureus [5]; ATCC 700698 / MSSA) of 0.00391 µg/mL (≈ 0.0135 µM). For the same molecule, the MIC (S. aureus [5]; ATCC 700699 / MSSA) was no less than 4 µg/mL, the MIC (S. aureus [5]; ATCC 700787 / MSSA) was 0.00195 µg/mL (≈ 0.00675 µM) and the MIC (S. aureus [5]; ATCC 700788 / MSSA) was 0.0312 µg/mL (≈ 0.108 µM). It also gave an MIC (S. aureus [5]; ATCC 700789 / MSSA) of 0.0156 µg/mL (≈ 0.054 µM).

Work on CSCC[C@H](NC=O)C(=O)N[C@@H](CC(C)C)C(=O)Oc1ccc(CSc2cccc[n+]2[O-])cc1 [NB3024] yielded an MIC (P. aeruginosa) of 128 µg/mL (≈ 253 µM), an MIC (E. faecalis) of 32 µg/mL (≈ 63.3 µM) and an MIC (E. coli) of 16 µg/mL (≈ 31.6 µM). For the same molecule, the MIC (S. aureus [1]; [7]) was 8 µg/mL (≈ 15.8 µM), the “percent of the compound remaining after 6 hours, HEPES” value [2, 8] was “(88%)” and the half-life [2, 9] was greater than 12 h. For the same molecule, the “percent of the compound remaining after 6 hours, Broth” value ([2]; Mueller Hinton broth, 6 hours) was “(82%)”, the half-life [2, 10] was greater than 12 h and the “percent of the compound remaining after 6 hours, PBS” value ([2]; PBS, pH 7.4, 6 hours) was “(81%)”. For the same molecule, the half-life [2, 11] was greater than 12 h.

B1: purified PDF (Escherichia coli K-12) (protein)
chain: T1 sequence (P0A6K3 1-169)
notes: made in house; host or cells: PDF-overexpressing E. coli
In the case of B1, the Km [6] is reported as 125 ± 17 µM, the kcat [6] is reported as 2.07 ± 0.14 s⁻¹ and the kcat/Km [6] is reported as 17000 M⁻¹ s⁻¹.
